Results on 94 compounds are retold here after ChEMBL document CHEMBL3507680, “University of Dundee, Gates Library screen for HepG2 cell viability”.

A short description of the data set: Human HepG2 cell viability assay in 384 well format. The data set is classed as toxicity, cell-based. More on the design: dose 125 nL, time 70.5 hour; cytotoxicity at 70.5 h: concentration not given beside the values. The conditions noted are these: HepG2 cells, read-out: Inhibition.

For the compound `CC(C)NC(=O)N1CC[C@@H]2CN(S(C)(=O)=O)CCO[C@@H]2C1`, the cytotoxicity at 70.5 h is -4.96%.

Consider `CO[C@H]1CO[C@@]2(CCCN(S(=O)(=O)c3ccccc3)C2)C1`, for which the cytotoxicity at 70.5 h is -10.1%. As for `O=S(=O)(c1ccccc1)N1CC[C@]2(C[C@@H](OCC3CC3)CO2)C1`, the figure is -10.2%; as for `Cn1cc(CN2CCCC23CCN(S(C)(=O)=O)CC3)cn1`, -2.11%; as for `Cc1cc(CN2CCC3(CC2)C(=O)NCCN3CC2CC2)oc1C`, 9.39%. Under `C[C@H]1C[C@@H]2CCN(C(=O)c3cccn3C)C[C@H]2O1` stands -12.7%; under `CN(C)CCN1CCC2(CC1)CN(c1cccnc1)C(=O)CO2`, -13.5%. Under `O=C(c1cnccn1)N1CCc2onc(CN3CCOCC3)c2C1` stands 23.2%; under `CNC(=O)c1nc2c(s1)CCN(C(=O)Cc1ccc(OC)cc1)CC2`, 20.5%. In the case of `Cc1cc(C(=O)N2CCc3ncc(CN4CCOCC4)n3CC2)no1`, the cytotoxicity at 70.5 h was 28.9%.

In the case of `CC(C)CN1C[C@H]2C[C@H](C(=O)Nc3cccnc3)[C@@H](C1)O2`, the cytotoxicity at 70.5 h is -4.05%. As for `Cc1cc(C(=O)N2CC[C@@H]3CN(c4ncccn4)CCO[C@@H]3C2)c(C)o1`, the figure is -12.2%. Under `Cn1cc(C2COC3(CCN(C(=O)c4ccc(F)cc4)CC3)C2)cn1` (centres undefined) stands -2.41%. Take `Cc1nnc([C@@H]2CC[C@@H]3[C@@H](CCN3S(=O)(=O)c3cccnc3)O2)o1`: the cytotoxicity at 70.5 h was determined as 0.577%.

For the compound `CCN1C[C@H]2C[C@H](C(=O)NCc3cccnc3)[C@@H](C1)O2`, the cytotoxicity at 70.5 h was found to be 3.07%. As for `CC(C)CCN1Cc2c(C(=O)O)ncn2-c2ccccc2S1(=O)=O`, the figure is 30.1%. As for `Cc1nc2c(c(NC3CC3)n1)CCN(C(=O)C(C)(C)O)CC2`, the figure is 2.5%. As for `O=C(c1ccncc1F)N1CCc2ncnc(-c3ccncc3)c2CC1`, the figure is 6.15%; as for `Cc1nc(CN2C(=O)CC[C@@H]3[C@H]2CCN3C(=O)NC2CC2)cs1`, 21.8%; as for `O=C(C1CCOCC1)N1C[C@@H]2[C@@H](C1)OCC(=O)N2CC1CC1`, -6.04%. `CC(=O)NCC(=O)N1Cc2nccn2CC(CN2CCCC2)C1` (centres undefined): the cytotoxicity at 70.5 h is 0.0844%.

For the compound `CC(C)CN1Cc2c(C(=O)N(C)C)ncn2-c2ccccc2S1(=O)=O`, the cytotoxicity at 70.5 h is -6.58%. `CN(C)C(=O)COC1COC2(CCN(S(C)(=O)=O)CC2)C1` (centres undefined): the cytotoxicity at 70.5 h was -6.01%.

For `Cc1occc1C(=O)N1CCc2c(COCC3CC3)cncc2C1`, the cytotoxicity at 70.5 h is -2.87%. Regarding `O=C(CC1CC1)NCc1cn2c(n1)CN(C(=O)c1cccnc1)CC2`, the cytotoxicity at 70.5 h was -7.69%.

With `COCCC(=O)N1CCC2(COCc3cnc(N4CCOCC4)nc32)C1` (centres undefined), the cytotoxicity at 70.5 h was -15.1%. Under `CC(=O)N1CC[C@@H]2CN(C(=O)c3ccco3)CCO[C@@H]2C1` stands -29.3%; under `O=C(c1ccsc1)N1CCN2C[C@H](OCc3cccnc3)C[C@H]2C1`, -13.4%; under `Cn1cccc1C(=O)N1CCCn2nc(CCC(=O)NC3CC3)cc2C1`, 9.42%.

Turning to `COc1cccc(CC2CN(C3CCC3)CCO2)c1` (centres undefined), the cytotoxicity at 70.5 h came out at 0.0358%. As for `CC(C)c1cc(C(=O)N2CCOC3(CCCC3)C2)no1`, the figure is -21.7%; as for `COCC(=O)N1CCCC(C(=O)NCc2cc(CC(C)C)on2)C1` (centres undefined), 27%. Take `O=C(NC1CC1)c1ccnc(N2CCOC(c3ccc(Cl)cc3)C2)c1` (centres undefined): the cytotoxicity at 70.5 h came to 7.4%. Under `CC1(c2ccccc2)CCCN(Cc2cncn2C2CCCC2)C1` (centres undefined) stands -13.6%; under `Cc1nccc(N2CCCC(c3nnc(Cn4ccnc4C)n3C)C2)n1` (centres undefined), 16.3%. Under `O=c1cc(-c2cc(O)cc(CCC3CCCCN3)c2)cc[nH]1` (centres undefined) stands -6.48%; under `CNc1ncccc1C(=O)N1CCC2(CCN(C)C2)CC1`, 2.78%.

`Cc1nc(N[C@H]2COC[C@@H]2N2CCCCC2)c2c(C)nn(C)c2n1`: the cytotoxicity at 70.5 h was -4.88%. Under `CCn1nc(C)cc1C(=O)N1C[C@@H](CN(C)C)[C@@H](CO)C1` stands -2.98%; under `COc1ncccc1C(=O)N1CCc2c(ncnc2N2CCOCC2)C1`, -3.85%. `COCC1CCCN(C(=O)c2ccc(N(C)Cc3cnn(C)c3)nc2)C1` (centres undefined): the cytotoxicity at 70.5 h was found to be 26%.

As for `CC(C)[C@@H]1CN(Cc2ccccc2C#N)C[C@H]1NC(=O)N(C)C`, the cytotoxicity at 70.5 h was -1.2%. As for `COCc1cccc(C(=O)N2C[C@H]3CC[C@@H]2CN(Cc2cscn2)C3)n1`, the figure is 34.5%.

On to `CCC(NC(=O)c1cc(NC(C)=O)ccc1Cl)c1cc(C)ccn1` (centres undefined), for which the cytotoxicity at 70.5 h was 9.03%. As for `CCN(C)C(=O)c1coc(COc2ccccc2)n1`, the figure is -4.16%; as for `CC(=O)c1cnc(N(C)Cc2cnc3ccccc3n2)nc1C`, -5.98%. As for `Cc1nc(C(=O)NCCS(=O)(=O)N2CCCC2)cs1`, the figure is 13.7%; as for `CN(CCc1ccccc1)Cc1nc(Cc2cccc(F)c2)no1`, 0.246%; as for `CC(C)(C)c1ccn(C2(C(=O)O)CCN(c3ccncc3F)CC2)n1`, -8.89%. Consider `O=S1(=O)COCCN1CCOc1ccccc1`, for which the cytotoxicity at 70.5 h is 17.3%. As for `COc1ccccc1CN(Cc1cccnc1)Cc1c[nH]c(C)n1`, the figure is 8.36%; as for `c1cc2c(cc1-c1noc3c1CN(C1CCSC1)CC3)OCO2` (centres undefined), -12.7%. For the compound `CS(=O)(=O)NCCC(=O)N1Cc2cnc(-c3ccccc3)nc2C1`, the cytotoxicity at 70.5 h worked out at 2.41%. Regarding `O=C(c1cc(Cl)ccc1OC1CCN(C2CCCC2)CC1)N1CCCO1`, the cytotoxicity at 70.5 h worked out at 11.8%. As for `Cc1ccc(C(=O)N2CCSCC2)cc1N1CCNC1=O`, the figure is -5.73%.

With `O=C(NCCc1ccncc1)c1ccc(N2CCOCC2)cc1`, the cytotoxicity at 70.5 h amounted to 4.27%. Under `c1cncc(OC[C@@H]2CCC[C@@]23CNCCO3)c1` stands 14.3%; under `Cc1ncnc2c1CCN(CC(=O)N(C)C)CC2`, -5.19%; under `Cc1cccc(S(=O)(=O)N2CC[C@H]3CO[C@H](CN(C)C)[C@H]3C2)c1`, -6.86%.

In the case of `CN(C)C(=O)CC1CC2(CCN(CC3CC3)CC2)c2cc(F)ccc21` (centres undefined), the cytotoxicity at 70.5 h came to 35.7%. As for `CCc1cnc(N2CCC3(CC2)CN(c2cccnc2)C(=O)CO3)nc1`, the figure is 23.8%.

Turning to `CS(=O)(=O)NC[C@]12COC[C@H]1CN(CC1CCCC1)C2`, the cytotoxicity at 70.5 h was -12.8%. Consider `CCC1=N[C@@]2(CC[C@@H]3CN(Cc4ccc(Cl)cc4)C[C@@H]32)C(=O)N1C`, for which the cytotoxicity at 70.5 h is -15.2%.

Turning to `Cc1ccc(C(=O)N2CCC3(CCN(C(=O)c4cccnc4)C3)CC2)o1`, the cytotoxicity at 70.5 h was -19.3%.

For the compound `CCN(CC)Cc1cn2c(n1)CN(C(=O)c1cnccn1)CC2`, the cytotoxicity at 70.5 h was -13.4%.

Turning to `Cc1cc(CN2CC[C@H]3C[C@H](C(=O)N4CCC(C)CC4)O[C@H]3C2)no1`, the cytotoxicity at 70.5 h was -9.04%. As for `O=C(c1ccc(F)cc1)N1C[C@H]2CCC[C@@]2(COCc2ccccn2)C1`, the figure is -15.6%; as for `O=C(NC1CC1)[C@@H]1CCO[C@@H]2CCN(Cc3ccsc3)C[C@H]21`, -2.46%. As for `Cc1ccc(C(=O)N2C[C@@H]3OCCN(CCN4CCCC4)[C@@H]3C2)cn1`, the figure is -4.09%; as for `CC(C)OCc1ncn2c1CN(Cc1cccs1)CCC2`, 1.83%. With `CN1C(=O)C2(CCN(CC3CC3)CC2)c2ccccc21`, the cytotoxicity at 70.5 h is -2.61%. As for `O=C(N1CCCC1)N1Cc2nccn2CC(CN2CCCC2)C1` (centres undefined), the figure is -8.56%; as for `CC(C)OCc1ncn2c1CN(Cc1ccc(F)cc1)CCC2`, -3.8%; as for `COCCN1CCC2(COCc3cnc(N4CCOCC4)nc32)C1` (centres undefined), 28.1%. Under `CN(C)C(=O)NC1COC2(CCN(Cc3ccccc3)CC2)C1` (centres undefined) stands 27.7%; under `CN(C)C(=O)c1cnc2n1CCN(Cc1ccccc1)C2`, -15.3%. Under `CN(C)[C@@H]1CCN(C(=O)Cc2ccc(F)cc2)[C@H]1Cc1cnn(C)c1` stands -10.4%; under `Cc1ccc(CN2CCn3c(C(=O)N(C)C)cnc3C2)s1`, -20.4%. Consider `CC(C)CN1CCC2(C1)CN(c1ncccn1)C2`, for which the cytotoxicity at 70.5 h was -11.9%. For the compound `COCCN1CCC2(CCCN(c3ncccn3)C2)C1` (centres undefined), the cytotoxicity at 70.5 h was -12.6%. As for `CN(C)[C@@H]1CCN(C(=O)NC2CCCC2)[C@H]1Cc1cnn(C)c1`, the figure is -15.8%; as for `Cn1ccc(CN2CCCC23CCN(Cc2cccc(F)c2)CC3)n1`, 0.351%. As for `Cn1ccc(CN2CCCC23CCN(Cc2nccn2C)CC3)n1`, the cytotoxicity at 70.5 h was -2.05%. Under `Cn1ccnc1CN1CCCC2(CCN(CC3CCCO3)CC2)C1` (centres undefined) stands 4.14%; under `c1cc(CN2CCO[C@H]3[C@H](OCC4CCCC4)CC[C@@H]32)ccn1`, -5.29%; under `CN(C)CCN1CCO[C@@H]2CN(C(=O)c3cccs3)CC[C@@H]2C1`, -16.4%. For `CC(C)CN1C[C@H]2CCN(Cc3cccnc3)CC[C@H]2S1(=O)=O`, the cytotoxicity at 70.5 h was -10.9%. In the case of `CC(C)N1Cc2c(C(=O)N3CCOCC3)nn(C)c2C1`, the cytotoxicity at 70.5 h is -13.7%.

For `O=C(c1ccnnc1)N1C[C@@H]2OCCN(CCN3CCCC3)[C@@H]2C1`, the cytotoxicity at 70.5 h worked out at 4.4%.

As for `Cc1ccc(CN2CC[C@H]3[C@@H]2CCC(=O)N3CCN2CCCC2)s1`, the cytotoxicity at 70.5 h was 11.4%. As for `CCC(=O)N1Cc2nccn2CC(CN(C)Cc2cccnc2)C1` (centres undefined), the figure is -17.9%; as for `O=C(c1cccc(F)c1)N1CCN2C[C@H](OCc3cccnc3)C[C@H]2C1`, -19%; as for `FC1(F)CCN(Cc2ccncc2)CC12CCN(Cc1ccccn1)C2` (centres undefined), 14.3%. As to `c1ccc(NCc2cn3c(n2)CN(Cc2cccnc2)CC3)nc1`, the cytotoxicity at 70.5 h was -10%.
